Read-outs that look alike come from different tables or passages of the source.
Columns and labels:
[1] = tested on: hair cell genes Atoh1, Pou4f3, Myo7a in OC explants; assay: Hair cell gene expression in organ of Corti explants (RT-PCR); assay type: cell-based, mouse; settings: 5 μM, 4 days, vs DMSO
Description: OC explants were isolated from postnatal day 2 (P2) Wistar rats, P0-P2 mice (Lgr5-GFP or Atoh1-nGFP mice). Dissection of the cochlea under a stereomicroscope (Nikon SMZ800, Japan) allowed OC separation from stria vascularis and modiolus, and the sensory epithelium was plated with hair cells facing up on Cell-Tak (Corning, United States)-coated transwell-clear inserts (6-well format, 0.4 μm pore, Corning, United States). Dissection medium was exchanged for 1.5 ml full otic medium supplemented with 10% FBS (Invitrogen) and 0.01% Ampicillin (Sigma), added under the insert membrane, maintaining the OC under a thin film of medium during culture at 37°C. 5-ethyl-2′-deoxyuridine (EdU, 5 μM, Life Technologies) was added directly in the medium when indicated.
Concentrations of small molecule GSIs {LY411575, CPD3, CPD8, DAPT (N-[N-(3,5-Difluorophenacetyl)-L-alanyl]-S-phenylglycine t-butyl ester; Sigma)} were prepared in DMSO and are indicated in Figure Legends and Results. DMSO included as Control. Treatment groups were assigned randomly.
(§1) Cells or tissue were lysed using RLT Lysis Buffer (Qiagen) and high purity RNA was prepared on the MagNA Pure instrument using MagNA Pure 96 Cellular RNA LV Kit (Roche). Reagents from Thermo Fisher were used for cDNA synthesis by reverse transcription using random hexamers. Resulting cDNA was RNAse H treated and amplified by TaqMan GEX mastermix and PCR primers and probes for human ATOH1 (Hs00944192_s1) and TBP (Hs00427620_m1), mouse Tbp (Mm00446971_m1), Atoh1 (Mm00476035_s1), Hes5 (Mm00439311_g1), Pouf4s (Mm04213795_s1), and Myo7a (Mm01274015_m1) on the Applied Biosystems QuantStudio 7 Flex Real-Time PCR System. Normalized to Tbp, relative gene expression fold-change was quantified and compared between experimental and control conditions by ΔΔCt calculation.
FIGURE 2 GSI-mediated induction of hair cell gene expression and de novo generation of hair cells in the neonatal cochlear sensory epithelium. (A) Gene expression changes of Atoh1, Pou4f3, and Myo7a in response to Notch pathway inhibition by CPD3 (solid lines, triangles) and CPD8 (dashed lines, open square) in otic spheres. Gene expression is reported as fold-change relative to carrier control-treated (DMSO, 0.05%). (n = 9–12). […] (B) Gene expression analysis for the hair cell genes Atoh-1, Myo7a, and Pou4f3. DMSO control n = 13, CPD3 n = 12, LY411575 n = 9, DAPT n = 6 from 2–4 independent experiments. OC explants were cultured for 4 days with/without GSI prior to lysis and analysis. One-way ANOVA with Dunnett’s multiple comparison test, each condition compared to DMSO control. (*p < 0.05, **p < 0.005, ***p < 0.001). (C) Cell counts of Atoh1 positive HCs (OHC left, IHC right) in the mouse cochlear sensory epithelium in the mid-apex region after 7 days in culture with different γ-secretase inhibitors. One-way ANOVA Dunnett’s multiple comparison test, each condition compared to DMSO control. (*p < 0.05; n = 3–5 independent experiments). (D) Quantification of Pou4f3 positive HCs (OHC left, IHC right) in the cochlear sensory epithelium from P2 rats in the apical domain after 8 days in culture with different γ-secretase inhibitors. One-way ANOVA with Dunnett’s multiple comparison test, each condition compared to DMSO control (*p < 0.05, n = 3). Representative immunohistological images of the apical domain after 8 days incubation (inset). scale bar = 20 μm. (E) Quantification of Pou4f3 positive OHCs in the apex, middle and basal domain of organ of Corti explants from rats after 4 days of CPD3 treatment compared to DMSO (*p < 0.05, unpaired t-test) n = 4–6 explants from 2 independent experiments.

[2] = tested on: Notch-dependent expression of ATOH1 in LS174T cells; assay: ATOH1 expression induction in LS174T cell line by GSIs (RT-PCR); assay type: cell-based, human; settings: GSI treatment 72 h, fold-change vs 0.05% DMSO, read-out: IC50 for ATOH1 expression upregulation
Description: The human colon cancer cell line LS174T (CL-188; ATCC) was cultured without antibiotics in 1% FBS/Eagle’s Minimum Essential Medium (MEM; Thermo Fisher) ([Asakura et al., 2018]). […]
as §1
Statistical analysis was performed with GraphPad Prism software (Prism9; GraphPad Software Inc., San Diego, CA, United States). For explant cultures, when the number of explants/replicates was not sufficient to test for Gaussian distribution normal distribution of the data was assumed based on previous experiments ([Perny et al., 2017]; [Erni et al., 2019]). Alternatively, the distribution of the datasets was tested by D’Agostino and Pearson normality test. Unpaired t-tests were used to compare parametric data sets of two groups. Welch’s correction was applied if variances were not equal. For non-parametric data, the Mann–Whitney test was adopted. One-way ANOVA was used to determine the difference in means among multiple groups and multiple comparison correction was tested. Graphs indicate the single data point, the mean values ± standard deviation. IC50s were calculated by non-linear regression of data normalized by percent change from controls to compare multiple experiments. Differences in IC50s from Best fit data were compared by Least Squares (F-test; Extra sum of squares; alpha = 0.05).
To measure the relative potency between different GSIs, a pharmacological assay was initially used to identify the dose ranges effective to induce ATOH1 expression. The cell line LS174T, a human colorectal adenocarcinoma, was used to evaluate Notch-dependent expression of ATOH1 ([Kazanjian et al., 2010]). Two compounds from Eli Lilly, designated LY3056480 (CPD3) and LY3056359 (CPD8) (Figures 1A,B) were compared with the commercially available GSIs LY411575 and DAPT. […] The intermediate potency of CPD3 and 8 was likely to be adequate to achieve levels above the IC50 after dilution into perilymph in the inner ear.

[3] = Inner ear pharmacokinetics after transtympanic administration (perilymph, plasma; LC-MS/MS); assay type: in vivo, guinea pig; settings: 10% POX, sampled at 0.5, 1 and 6 h post-dosing
Description: Female albino Hartley guinea pigs, 250 g, from Charles River (France), housed in macrolon cages (2/cage; Innocage Rat Static-Innovive, Paris) with filter air, were maintained at 22 ± 2°C on a 12-h light cycle with standard A04C (UAR) diet and water “ad libitum.” Lgr5-GFP mice containing an EGFP-IRES-CreERT2 knock-in allele at the Lgr5 locus were obtained from the Jackson Labs (Stock 008875, C57BL/6J/RccHsd background). Atoh1-nGFP transgenic mice (C57Bl/6J background) were from Jane Johnson ([Lumpkin et al., 2003]). Wistar rats were obtained from Charles River.
γ-secretase inhibitors pharmacokinetic studies tested CPD3, CPD8 (Eli Lilly) or LY411575 (Stemcell Technologies) each formulated at 3.4 mg/ml in the following vehicles, 10% Poloxamer 338 (Sigma), 20% Poloxamer 338, 70% PEG400 (Sigma) or 1% hyaluronic acid (HA-700; Lifecore, Chaska, MN, United States) all prepared with PBS (pH 6.2). A single 70 μl injection of the formulated compound (total dose, 870 μg/kg) was delivered to the middle ear space of isoflurane-anesthetized guinea pigs by transtympanic administration. Perilymph from treated animals (perilymph volumes, >2 μl) was collected at time points up to 48 h post-administration (CILcare, Montpellier, France). Briefly, concentrations of each compound in perilymph and plasma, as well as controls prepared in artificial perilymph, were measured by LC-MS/MS on an AB Sciex, API 4000 mass spectrometer using an Onyx C18 5 μm 50^∗2.0 mm separation column (Oroxcell, Romainville, France).
To verify this, in vivo compound concentrations were measured in perilymph of guinea pigs after intratympanic delivery of GSIs into the middle ear. Initially, four vehicle formulations, with different physical properties, were tested, poloxamer 338 (POX; at 10% or 20%), hyaluronic acid (HA), or polyethylene glycol 400 (PEG). For this comparison only one GSI was prepared in each formulation (CPD3, 3.4 mg/ml) and a single dose was injected into the middle ear. Perilymph and plasma were sampled for 48 h (Figure 1D). […] Next, using only 10% POX as vehicle, inner ear adsorption was compared between CPD3, CPD8, and LY411575 by transtympanic injections (Figure 1D, inset). […] Each compound achieved levels several folds above their respective IC50s. The mean maximal perilymph concentration of CPD3 at 0.5 h post-dosing was 85,489 ng/ml (183 μM), then declined at 1 h to 12,928 ng/ml (27.7 μM), and at 6 h to 12,652 ng/ml (27.1 μM). GSIs in plasma samples were not detected (data not shown).

[4] = tested on: Atoh1, Pou4f3, Myo7a expression in otic spheres; assay: Otic sphere assay, hair cell gene expression; assay type: cell-based, mouse
Description: The generation of otic spheres followed previously described protocols ([Oshima et al., 2009]) with modifications during differentiation phase to test GSIs. Briefly, OCs were dissociated and single cells were deposited in ultralow-cluster plates (Corning) and expanded in “full otic medium” consisting of DMEM/F12, supplemented with N2, B27 (Thermo Fisher), EGF (20 ng/ml; Chemicon), bFGF (10 ng/ml; Chemicon), IGF-1 (50 ng/ml; Chemicon), and heparan sulfate (50 ng/ml; Sigma-Aldrich). After culturing for 3–4 days at 37°C, spheres were collected, plated in cell culture-treated 96 well-plate and cultured in DMEM/F12, supplemented with N2, B27 with/without GSIs for 7 days after which they were lysed for RNA extraction.
as §1
CPD3 and CPD8 were further compared for their potency to induce hair cell gene expression in otic sphere assays ([Oshima et al., 2009]). Cells were first expanded in presence of growth factors, and in a second step differentiated by growth factor removal and GSI treatment. […] This indicated a modest advantage of CPD3 in eliciting expression of the early hair cell marker Atoh1, but similar potency on expression of some later markers of HC differentiation, Pou4f3 and Myo7a (Figure 2A). From the results of two screening assays, CPD3 was selected for additional characterization studies based on its lower IC50 to induce Atoh1/ATOH1 expression in the otic spheres and LS174T cells, respectively.

| IC50 [2] [nM] | Perilymph concentrations quantifiable [3] | IC50 ([4]; Mus musculus, 168 h, 7 days differentiation with GSI, read-out: IC50 for Atoh1 upregulation) [nM] | IC50 ([2]; Homo sapiens) [nM] | SMILES | Atoh1 expression [1] [fold] | Myo7a expression [1] [fold] | Pou4f3 expression [1] [fold] | Induction of Atoh1, Pou4f3 and Myo7a expression ([4]; dose-responsive, p < 0.05) |
| --- | --- | --- | --- | --- | --- | --- | --- | --- |
| 1400 |  |  |  | C[C@H](NC(=O)Cc1cc(F)cc(F)c1)C(=O)N[C@H](C(=O)OC(C)(C)C)c1ccccc1 [DAPT, N-[N-(3,5-Difluorophenacetyl)-L-alanyl]-S-phenylglycine t-butyl ester] | 2.36 ± 0.39 | 1.59 ± 0.21 | 2.14 ± 0.36 |  |
|  | quantifiable at all time points | 303 | 62 | C[C@H](NC(=O)CCC(F)(F)F)C(=O)N[C@@H]1C(=O)C=C2N(CCC2(C)C)c2ncccc21 [CPD8] |  |  |  | significantly induced |

Reference: publication PMC8414802, “Hair Cell Generation in Cochlear Culture Models Mediated by Novel γ-Secretase Inhibitors” (Frontiers in Cell and Developmental Biology, 2021)
